Test results: patent US7205302B2, “Heterocyclic compound derivatives and medicines” (Nippon Shinyaku Co., Ltd., priority 2001, dated 2007)

melting point [°C] | Structure (SMILES)
137 to 139 | O=C(O)COCCCC1CCCN1c1cnc(-c2ccccc2)c(-c2ccccc2)n1 (racemic) [Example 55, (±)-2-{3-[1-(5,6-diphenylpyrazin-2-yl)pyrrolidin-2-yl]propyloxy}acetic acid]
138 to 140 | O=C(O)COCCCCC1CCCN1c1cnc(-c2ccccc2)c(-c2ccccc2)n1 (racemic) [Example 57, (±)-2-{4-[1-(5,6-diphenylpyrazin-2-yl)pyrrolidin-2-yl]butyloxy}acetic acid]
139 to 140 | O=C(O)COCCC1CCCN(c2cnc(-c3ccccc3)c(-c3ccccc3)n2)C1 (racemic) [Example 58, (±)-2-{2-[1-(5,6-diphenylpyrazin-2-yl)piperidin-3-yl]ethoxy}acetic acid]
101 to 103 | O=C(O)COCCCCN(c1cnc(-c2ccccc2)c(-c2ccccc2)n1)C1CCCC1 [Example 43, 2-{4-[N-(5,6-diphenylpyrazin-2-yl)-N-cyclopentylamino]butyloxy}acetic acid]
130 to 131 | O=C(O)COCCCCN(c1cnc(-c2ccccc2)c(-c2ccccc2)n1)C1CCCCC1 [Example 44, 2-{4-[N-(5,6-diphenylpyrazin-2-yl)-N-cyclohexylamino]butyloxy}acetic acid]
155 to 156 | Cc1ccc(-c2ncc(N(CCCCOCC(=O)O)C(C)C)nc2-c2ccc(C)cc2)cc1 [Example 45, 2-{4-[N-(5,6-di-p-tolylpyrazin-2-yl)-N-isopropylamino]butyloxy}acetic acid]
136 to 138 | CC(C)N(CCCCOCC(=O)O)c1nc(-c2ccccc2)c(-c2ccccc2)nc1Cl [Example 47, 2-{4-[N-(3-chloro-5,6-diphenylpyrazin-2-yl)-N-isopropylamino]butyloxy}acetic acid]
128 to 130 | CC(C)N(CCCCOCC(=O)O)c1nnc(-c2ccccc2)c(-c2ccccc2)n1 [Example 49, 2-{4-[N-(5,6-diphenyl-1,2,4-triazin-3-yl)-N-isopropylamino]butyloxy}acetic acid]
161 to 162 | Cc1ccc(-c2ncc(N(C)CCCCOCC(=O)O)nc2-c2ccc(C)cc2)cc1 [Example 50, 2-{4-[N-(5,6-di-p-tolylpyrazin-2-yl)-N-methylamino]butyloxy}acetic acid]
128 to 130 | COc1ccc(-c2ncc(N(C)CCCCOCC(=O)O)nc2-c2ccc(OC)cc2)cc1 [Example 51, 2-[4-{N-[5,6-bis(4-methoxyphenyl)pyrazin-2-yl]-N-methylamino}butyloxy]acetic acid]
116 to 118 | CN(CCCCOCC(=O)O)c1cnc(-c2ccc(F)cc2)c(-c2ccc(F)cc2)n1 [Example 52, 2-[4-{N-[5,6-bis(4-fluorophenyl)pyrazin-2-yl]-N-methylamino}butyloxy]acetic acid]
173 to 174 | O=C(O)COCCC1CCN(c2cnc(-c3ccccc3)c(-c3ccccc3)n2)CC1 [Example 54, 2-{2-[1-(5,6-diphenylpyrazin-2-yl)piperidin-4-yl]ethoxy}acetic acid]
108 to 110 | CN(CCCCOCC(=O)O)c1nnc(-c2ccccc2)c(-c2ccccc2)n1 [Example 56, 2-{4-[N-(5,6-diphenyl-1,2,4-triazin-3-yl)-N-methylamino]butyloxy}acetic acid]
158 to 159 | CN(C[C@H](O)c1cccc(OCC(=O)O)c1)c1cnc(-c2ccccc2)c(-c2ccccc2)n1 [Example 59, (R)-(+)-2-[3-{2-[N-(5,6-diphenylpyrazin-2-yl)-N-methylamino]-1-hydroxyethyl}phenoxy]acetic acid]
174 to 176 | CN(CCc1cccc(OCC(=O)O)c1)c1cnc(-c2ccccc2)c(-c2ccccc2)n1 [Example 61, 2-[3-{2-[N-(5,6-diphenylpyrazin-2-yl)-N-methylamino]ethyl}phenoxy]acetic acid]
182 to 184 | CN(c1cnc(-c2ccccc2)c(-c2ccccc2)n1)C1CCc2c(OCC(=O)O)cccc21 (stereo not shown) [Example 62, 4-(carboxymethoxy)-1-[N-(5,6-diphenylpyrazin-2-yl)-N-methylamino]indane]
